The record followed here is article PMC11844072, “Novel 5,6-dichlorobenzimidazole derivatives as dual BRAFWT and BRAFV600E inhibitors: design, synthesis, anti-cancer activity and molecular dynamics simulations” (BMC Chemistry, 2025).

Experiment [1] addresses T1, BRAFWT (Homo sapiens, UniProt P15056).
T1 construct: purchased BPS Biosciences 78316
The experiment is described as follows: BRAFWT kinase assay kit (Kinase-Glo Max luminescence). Type of experiment: biochemical. The note with it: BRAFwt, 10 µM; mean of two independent experiments ± SD. Here is the method:
The inhibitory activities of 10a–p on BRAFWT was examined utilizing BRAFWT assay kit (BPS Biosciences—San Diego—CA—US) (For further information see Additional file A).
4. Biochemical kinase assays
The inhibitory activity against different kinases was determined using kinase kits (BRAF WT […]
Glo Max luminescence kinase assay kit (Promega).
The assay was carried out according to the protocol provided by the manufacturer. A stock solution of the synthesized derivatives in 100% DMSO was prepared. Subsequently, the compounds were diluted to 10% DMSO.
A master mixture was prepared according to the number of wells. For BRAF assay each well include 6 μl of 5x Kinase Buffer 1 + 1 μl of ATP (500 μM) + 10 μl of 5X Raf substrate + 8 μl of distilled water. 1x Kinase buffer 1 was prepared by mixing 600 μl of 5x Kinase Buffer 1 with 2400 μl water to give 3 mL. Kinases were thawed on ice and were diluted with 1x Kinase Buffer 1.
To start the biochemical reaction, 25 µL of the master mixture was added to each well in 96 well plate. 5 µL of 10% DMSO was added to positive control wells and blank wells. 5 µL of diluted inhibitor was added to each well labelled with the test inhibitor so that the final concentration of DMSO is 1% in all reactions. Then 20 µL of (2.5 ng/μl) in case of BRAF WT and (1 ng / μl) in case of VEGFR-2 and FGFR-1 in 1x kinase buffer was added to positive control wells and wells labelled with the inhibitor, while 20 µL 1x kinase buffer 1 was added to the blank wells.
The plate was incubated at 30 °C for 45 min. Subsequently, 50 μl of Kinase-Glo Max luminescence reagent was added to each well and the plate was covered with aluminum foil and incubated at room temperature for 15 min. Finally, the luminescence was recorded using multimode microplate reader. Kinase activity assays were performed in duplicate at each concentration.
The luminescence data were analyzed as follows. The difference between luminescence intensities in the absence of kinase (Lu t) and in the presence of kinase (Lu c) was defined as 100 % […]
calculated as: % activity = {(Lu t - Lu)/(Lut - Luc)} ×100%. The concentration of the test compounds required to reduce the kinase activity by 50% was determined from dose-response curves and […]
(In Kinase-Glo more light means more ATP remaining.)

For experiment [2], the system named is 786-0. The experiment is described as follows: NCI 60 single concentration growth inhibition. Type of experiment: cell-based, human. The note with it: 786-0, Renal cancer; for GI%: 10 μM; for inhibition at 10 µM: Homo sapiens, read-out: GI%. As for the experimental part:
(§1) The synthesized dichlorobenzimidazoles 10a–p were assayed for their influence on divers cancer cell lines according to the method presented in the Additional file A.
(§2) 5. Screening of cytotoxic activity against a panel of sixty human tumor cell lines
(§3) The selected compounds by NCI were evaluated for their anticancer activity in a two-stage process. First, these compounds were screened against the full NCI 60 cell lines panel at a single high dose of 10 µM. Then, the output from the single dose screen is reported as a mean graph. […]
(§4) at five different minimal concentrations.
(§5) Assay protocol. The human tumor cell lines of the cancer screening panel are grown in RPMI 1640 medium containing 5% fetal bovine serum and 2 mM L-glutamine. For a typical screening experiment, cells are inoculated into 96 well microtiter plates in 100 µL at plating densities ranging from 5000 to 40,000 cells/well depending on the doubling time of individual cell lines. After cell inoculation, the microtiter plates are incubated at 37 °C, 5% CO 2, 95% air and 100% relative humidity for 24 h prior to addition of the experimental drugs.
(§6) After 24 h, two plates of each cell line are fixed in situ with TCA, to represent a measurement of the cell population for each cell line at the time of drug addition (Tz). The experimental drugs are solubilized in dimethyl sulfoxide at 400-fold the desired final maximum test concentration and stored frozen prior to use. At the time of drug addition, an aliquot of frozen concentrate is thawed and diluted to twice the desired final maximum test concentration with complete medium containing 50 µg/mL gentamicin. Additional four, 10-fold or ½ log serial dilutions are made to provide a total of five drug concentrations plus control.
(§7) Aliquots of […] of these different drug dilutions are added to the appropriate microtiter wells already containing […] of medium, resulting in the required final drug concentrations.
(§8) Following drug addition, the plates are incubated for an additional 48 h at 37 °C, 5% CO 2, 95% air, and 100% relative humidity. For adherent cells, the assay is terminated by the addition of cold TCA.
(§9) Cells are fixed in situ by the gentle addition of 50 µL of cold 50% (w/v) TCA (final concentration, 10% TCA) and incubated for 60 min at 4 °C. The supernatant is discarded, and the plates are washed five times with tap water and air dried. Sulforhodamine B (SRB) solution ([…]) at 0.4% (w/v) in 1% acetic acid is added to each well, and plates are incubated for 10 min at room temperature. After staining, unbound dye is removed by washing five times with 1% acetic acid and the plates are air dried. Bound stain is subsequently solubilized with 10 mM trizma base, and the absorbance is read on an automated plate reader at a wavelength of 515 nm. For suspension cells, the methodology is […]
(§10) the same except that the assay is terminated by fixing settled cells at the bottom of the wells by gently adding 50 µl of 80% TCA (final concentration, 16% TCA). Using the seven absorbance measurements [time zero, (Tz), control growth, (C), and test growth in the presence of drug at the five concentration levels (Ti)], the percentage growth is calculated at each of the drug concentrations […]
(§11) Percentage growth inhibition is calculated as: [(Ti Tz)/(C–Tz)] x 100 for concentrations for which Ti>/=Tz and [(Ti-Tz)/Tz] x 100 for concentrations for which Ti < Tz.
(§12) Three dose response parameters are calculated for each experimental agent. Growth […]
(§13) concentration resulting in a 50% reduction in the net protein increase (as measured by SRB staining) in control cells during the drug incubation. The drug concentration resulting in total growth inhibition (TGI) is calculated from Ti = Tz. […]
(§14) reduction in the measured protein at the end of the drug treatment as compared to that at the beginning) indicating a net loss of cells following treatment is calculated from [(Ti–Tz)/Tz] x 100 =
(§15) _50. Values are calculated for each of these three parameters if the level of activity is reached; […]

For experiment [3], the system named is A498. The experiment in a line: NCI 60 single concentration growth inhibition. Type of experiment: cell-based, human. The note with it: A498, Renal cancer; for GI%: 10 μM; for inhibition at 10 µM: Homo sapiens, read-out: GI%. As for the experimental part:
as §1, §2, §3, §4, §5, §6, §7, §8, §9, §10, §11, §12, §13, §14, §15

For experiment [4], the system named is HOP-62. The experiment in a line: NCI 60 single concentration growth inhibition. Format: cell-based, human. The note with it: HOP-62, Non-small cell lung cancer; for GI%: 10 μM; for inhibition at 10 µM: Homo sapiens, read-out: GI%. As for the experimental part:
as §1, §2, §3, §4, §5, §6, §7, §8, §9, §10, §11, §12, §13, §14, §15

For experiment [5], the system named is MDA-MB-231/ATCC. The experiment in a line: NCI 60 single concentration growth inhibition. Format: cell-based, human. The conditions noted are these: Breast cancer; for GI%: 10 μM; for inhibition at 10 µM: Homo sapiens, read-out: GI%. As for the experimental part:
as §1, §2, §3, §4, §5, §6, §7, §8, §9, §10, §11, §12, §13, §14, §15

The subject of experiment [6] is OVCAR-8. The experiment is described as follows: NCI 60 single concentration growth inhibition. Type of experiment: cell-based, human. The conditions noted are these: OVCAR-8, Ovarian cancer; for GI%: 10 μM; for inhibition at 10 µM: Homo sapiens, read-out: GI%. Here is the method: as §1, §2, §3, §4, §5, §6, §7, §8, §9, §10, §11, §12, §13, §14, §15

Experiment [7] concerns RPMI-8226. The experiment is described as follows: NCI 60 single concentration growth inhibition. The conditions noted are these: RPMI-8226, Leukemia; for GI%: 10 μM; for inhibition at 10 µM: Homo sapiens, read-out: GI%. Type of experiment: cell-based, human. As for the experimental part:
as §1, §2, §3, §4, §5, §6, §7, §8, §9, §10, §11, §12, §13, §14, §15

For experiment [8], the system named is SF-539. The experiment in a line: NCI 60 single concentration growth inhibition. Format: cell-based, human. The conditions noted are these: SF-539, CNS cancer; for GI%: 10 μM; for inhibition at 10 µM: Homo sapiens, read-out: GI%. As for the experimental part: as §1, §2, §3, §4, §5, §6, §7, §8, §9, §10, §11, §12, §13, §14, §15

T1 sequence (P15056 whole entry): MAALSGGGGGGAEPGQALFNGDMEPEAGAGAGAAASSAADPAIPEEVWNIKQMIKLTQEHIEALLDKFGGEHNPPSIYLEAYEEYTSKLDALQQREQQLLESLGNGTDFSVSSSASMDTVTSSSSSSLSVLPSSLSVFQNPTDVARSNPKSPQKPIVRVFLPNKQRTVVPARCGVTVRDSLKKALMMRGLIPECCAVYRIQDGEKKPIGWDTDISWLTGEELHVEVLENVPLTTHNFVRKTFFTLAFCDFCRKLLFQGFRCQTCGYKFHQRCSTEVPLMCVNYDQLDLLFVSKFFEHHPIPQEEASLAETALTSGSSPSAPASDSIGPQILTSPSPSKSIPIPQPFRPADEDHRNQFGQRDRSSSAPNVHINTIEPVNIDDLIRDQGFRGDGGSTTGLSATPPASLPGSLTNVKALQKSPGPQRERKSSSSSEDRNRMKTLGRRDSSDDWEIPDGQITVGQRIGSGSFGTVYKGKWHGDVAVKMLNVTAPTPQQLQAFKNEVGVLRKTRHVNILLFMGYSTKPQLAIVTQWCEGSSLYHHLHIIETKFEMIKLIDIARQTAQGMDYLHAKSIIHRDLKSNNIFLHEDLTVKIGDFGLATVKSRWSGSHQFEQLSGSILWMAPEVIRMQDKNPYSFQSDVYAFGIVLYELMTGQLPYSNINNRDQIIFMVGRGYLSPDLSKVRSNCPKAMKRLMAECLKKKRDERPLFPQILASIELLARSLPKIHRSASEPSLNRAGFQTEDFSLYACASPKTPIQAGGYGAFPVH

One may read the % inhibition as the change of the read-out against control, counted positive when it falls. High values mean strong suppression, low ones little suppression. For “2-(4-((2-(2-(5,6-Dichloro-2-(4-methoxyphenyl)-1H-benzo[d]imidazol-1-yl)acetyl)hydrazono)methyl) -2-methoxyphenoxy)acetic acid [Compound 10m]”, the “% inhibition” value in experiment [1] is given as 77.25 ± 1.06%. Also, the GI% result in experiment [2], in experiment [3], in experiment [4], in experiment [5], in experiment [6] and in experiment [7] was “– (GI% < 5%)” each time. The GI% entry in experiment [8] is “– (GI% < 5%)”.
For the compound “2-(5-((2-(2-(5,6-Dichloro-2-(4-methoxyphenyl)-1H-benzo[d]imidazol-1-yl)acetyl)hydrazono)methyl)-2-methoxyphenoxy)acetic acid [Compound 10n]”, the “% inhibition” value in experiment [1] worked out at 90.05 ± 5.16%. For the same compound, the GI% entry in experiment [2] is “– (GI% < 5%)”; in experiment [3], “– (GI% < 5%)”; in experiment [4], “– (GI% < 5%)”; in experiment [5], 11.50%; in experiment [6] it was “– (GI% < 5%)”; in experiment [7], “– (GI% < 5%)”. In addition, in experiment [8], the GI% result is “– (GI% < 5%)”.
Regarding “3-(4-((2-(2-(5,6-Dichloro-2-(4-methoxyphenyl)-1H-benzo[d]imidazol-1-yl)acetyl)hydrazono)methyl)phenoxy)propanoic acid [Compound 10i]”, the “% inhibition” value in experiment [1] was determined as 74.95 ± 5.15%. Besides, the GI% in experiment [2] is recorded as 5.33%; in experiment [3], “– (GI% < 5%)”; in experiment [4] it was “– (GI% < 5%)”; in experiment [5], 12.19%; in experiment [6], “– (GI% < 5%)”; in experiment [7], “– (GI% < 5%)”. Also, in experiment [8], the GI% result is listed as “– (GI% < 5%)”.
In the case of `COc1ccc(-c2nc3cc(Cl)c(Cl)cc3n2CC(=O)NN=Cc2cccc(O)c2)cc1` [Compound 10a, 2-(5,6-Dichloro-2-(4-methoxyphenyl)-1H-benzo[d]imidazol-1-yl)-N'-(3-hydroxybenzylidene)acetohydrazide], the inhibition at 10 µM in experiment [1] stood at 22.5 ± 1%; in experiment [2] it was 28.6%; in experiment [3] it was 48.9%; in experiment [4] it was 24.1%; in experiment [5], 20%; in experiment [6] it was 29.5%. The inhibition at 10 µM in experiment [7] was determined as 67.4%; in experiment [8] it was 36.5%.
In the case of `COc1ccc(-c2nc3cc(Cl)c(Cl)cc3n2CC(=O)NN=Cc2ccc(O)cc2)cc1` [Compound 10b, 2-(5,6-Dichloro-2-(4-methoxyphenyl)-1H-benzo[d]imidazol-1-yl)-N'-(4-hydroxybenzylidene)acetohydrazide], the inhibition at 10 µM in experiment [1] is 21.9 ± 1.62%; in experiment [2], 34.8%; in experiment [3], 25.9%; in experiment [4], 19.3%; in experiment [5], 21.2%; in experiment [6] it was 28%. For the same compound, the inhibition at 10 µM was determined as 62.1% in experiment [7] and 32.5% in experiment [8].
Regarding `COc1ccc(-c2nc3cc(Cl)c(Cl)cc3n2CC(=O)NN=Cc2cccc(OC)c2)cc1` [Compound 10c, 2-(5,6-Dichloro-2-(4-methoxyphenyl)-1H-benzo[d]imidazol-1-yl)-N'-(3-methoxybenzylidene)acetohydrazide], the inhibition at 10 µM came to 53.85 ± 0.001% in experiment [1]; 19.2% in experiment [2]; 22.7% in experiment [3]; 6.68% in experiment [4]; 15.1% in experiment [5]; 13.5% in experiment [6]. Moreover, the inhibition at 10 µM in experiment [7] worked out at 47.3%; in experiment [8], 24.4%.
As to `COc1ccc(C=NNC(=O)Cn2c(-c3ccc(OC)cc3)nc3cc(Cl)c(Cl)cc32)cc1` [Compound 10d, 2-(5,6-Dichloro-2-(4-methoxyphenyl)-1H-benzo[d]imidazol-1-yl)-N'-(4-methoxybenzylidene)acetohydrazide], the inhibition at 10 µM in experiment [1] was found to be 52.7 ± 0.87%; in experiment [2] it was 29.1%; in experiment [3], 47.2%; in experiment [4], 23.6%; in experiment [5] it was 27.4%; in experiment [6], 22.4%. The inhibition at 10 µM in experiment [7] is 64.9%; in experiment [8], 34.2%.
For the compound `COc1ccc(-c2nc3cc(Cl)c(Cl)cc3n2CC(=O)NN=Cc2cccc(OCC(=O)O)c2)cc1` [Compound 10e, 2-(3-((2-(2-(5,6-Dichloro-2-(4-methoxyphenyl)-1H-benzo[d]imidazol-1-yl)acetyl)hydrazono)methyl)phenoxy)acetic acid], the inhibition at 10 µM in experiment [1] is 28.1 ± 2.76%; in experiment [2] it was below 5%; in experiment [3], below 5%; in experiment [4], below 5%; in experiment [5] it was below 5%; in experiment [6], below 5%. Also, the inhibition at 10 µM in experiment [7] and in experiment [8] was below 5% each time.
